Key:
Type in all cases: in vivo
[1] = system: barnyardgrass (Echinochloa crus-galli); experiment: Test A pre-/postemergence greenhouse herbicide test, visual injury rating 0-100
Method in brief: (§1)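 Postemergence treatment targeted seedlings 2 to 10 cm high with one to two leaves, while preemergence treatment was a directed spray onto freshly planted loam/sand soil. Injury was scored visually about 10 days later.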

corn (Zea mays) = experiment: as above
Method in brief: as §1

[2] = system: giant foxtail (Setaria faberii); experiment: as above
Method in brief: as §1

[3] = system: large (Lg) crabgrass (Digitaria sanguinalis); experiment: as above
Method in brief: as §1

[4] = system: morningglory (Ipomoea spp.); experiment: as above
Method in brief: as §1

[5] = system: pigweed (Amaranthus retroflexus); experiment: as above
Method in brief: as §1

[6] = system: velvetleaf (Abutilon theophrasti); experiment: as above
Method in brief: as §1

[7] = system: wheat (Triticum aestivum); experiment: as above
Method in brief: as §1

[8] = system: barnyardgrass (Echinochloa crus-galli); experiment: Test B flooded paddy test, plant response rating 0-100; settings: Flood, 250 g ai/ha; scale 0 to 100 (0 no effect, 100 complete control); 13 to 15 days
Source text: (§2) At time of treatment, test pots were flooded to 3 cm above the soil surface, treated by application of test compounds directly to the paddy water, and then maintained at that water depth for the duration of the test. Treated plants and controls were maintained in a greenhouse for 13 to 15 days, after which time all species were compared to controls and visually evaluated. […] A dash (-) response means no test result.

[9] = system: ducksalad (Heteranthera limosa); experiment: as above; settings: Flood, 250 g ai/ha; scale 0 to 100 (0 no effect, 100 complete control); 13 to 15 days
Source text: as §2

rice (Oryza sativa) = experiment: as above; settings: Flood, 250 g ai/ha; scale 0 to 100 (0 no effect, 100 complete control); 13 to 15 days
Source text: as §2

[10] = system: sedge, umbrella (small-flower umbrella sedge, Cyperus difformis); experiment: as above; settings: Flood, 250 g ai/ha; scale 0 to 100 (0 no effect, 100 complete control); 13 to 15 days
Source text: as §2

Compound: O=C(c1ccccc1)c1cn(C(=O)Cc2ccccc2)nc1-c1cc(Cl)cc(Cl)c1 [Compound 4]
- Plant response rating (0 to 100 scale), Barnyardgrass ([1]; Postemergence, 125 g ai/ha): 0
- Plant response rating (0 to 100 scale), Barnyardgrass ([1]; Postemergence, 500 g ai/ha): 0
- Barnyardgrass plant response rating (0 = no effect, 100 = complete control) ([1]; Preemergence, 125 g ai/ha): 0
- Plant response rating (0 to 100 scale), Barnyardgrass ([1]; Preemergence, 500 g ai/ha): 0
- Plant response rating (0 to 100 scale), Corn (corn (Zea mays); Postemergence, 125 g ai/ha): 0
- Plant response rating (0 to 100 scale), Corn (corn (Zea mays); Postemergence, 500 g ai/ha): 0
- Corn plant response rating (0 = no effect, 100 = complete control) (corn (Zea mays); Preemergence, 125 g ai/ha): 0
- Plant response rating (0 to 100 scale), Corn (corn (Zea mays); Preemergence, 500 g ai/ha): 0
- Plant response rating (0 to 100 scale), Foxtail, Giant ([2]; Postemergence, 125 g ai/ha): 0
- Plant response rating (0 to 100 scale), Foxtail, Giant ([2]; Postemergence, 500 g ai/ha): 10
- Foxtail, Giant plant response rating (0 = no effect, 100 = complete control) ([2]; Preemergence, 125 g ai/ha): 0
- Plant response rating (0 to 100 scale), Foxtail, Giant ([2]; Preemergence, 500 g ai/ha): 30
- Plant response rating (0 to 100 scale), Crabgrass, Large ([3]; Postemergence, 125 g ai/ha): 0
- Plant response rating (0 to 100 scale), Crabgrass, Large ([3]; Postemergence, 500 g ai/ha): 0
- Crabgrass, Large plant response rating (0 = no effect, 100 = complete control) ([3]; Preemergence, 125 g ai/ha): 0
- Plant response rating (0 to 100 scale), Crabgrass, Large ([3]; Preemergence, 500 g ai/ha): 20
- Plant response rating (0 to 100 scale), Morningglory ([4]; Postemergence, 125 g ai/ha): 0
- Plant response rating (0 to 100 scale), Morningglory ([4]; Postemergence, 500 g ai/ha): 0
- Morningglory plant response rating (0 = no effect, 100 = complete control) ([4]; Preemergence, 125 g ai/ha): 0
- Plant response rating (0 to 100 scale), Morningglory ([4]; Preemergence, 500 g ai/ha): 0
- Plant response rating (0 to 100 scale), Pigweed ([5]; Postemergence, 125 g ai/ha): 70
- Plant response rating (0 to 100 scale), Pigweed ([5]; Postemergence, 500 g ai/ha): 80
- Pigweed plant response rating (0 = no effect, 100 = complete control) ([5]; Preemergence, 125 g ai/ha): 80
- Plant response rating (0 to 100 scale), Pigweed ([5]; Preemergence, 500 g ai/ha): 90
- Plant response rating (0 to 100 scale), Velvetleaf ([6]; Postemergence, 125 g ai/ha): 80
- Plant response rating (0 to 100 scale), Velvetleaf ([6]; Postemergence, 500 g ai/ha): 90
- Velvetleaf plant response rating (0 = no effect, 100 = complete control) ([6]; Preemergence, 125 g ai/ha): 70
- Plant response rating (0 to 100 scale), Velvetleaf ([6]; Preemergence, 500 g ai/ha): 90
- Plant response rating (0 to 100 scale), Wheat ([7]; Postemergence, 125 g ai/ha): 0
- Plant response rating (0 to 100 scale), Wheat ([7]; Postemergence, 500 g ai/ha): 0
- Wheat plant response rating (0 = no effect, 100 = complete control) ([7]; Preemergence, 125 g ai/ha): 0
- Plant response rating (0 to 100 scale), Wheat ([7]; Preemergence, 500 g ai/ha): 0
- Plant response rating, Barnyardgrass [8]: 0
- Plant response rating, Ducksalad [9]: 0
- Plant response rating, Rice (rice (Oryza sativa)): 0
- Plant response rating, Sedge, Umbrella [10]: 0

Compound: CCn1cc(C(=O)c2ccccc2)c(-c2cc(F)cc(Cl)c2)n1 [Compound 46]
- Plant response rating (0 to 100 scale), Barnyardgrass ([1]; Postemergence, 1000 g ai/ha): 0
- Plant response rating (0 to 100 scale), Barnyardgrass ([1]; Preemergence, 1000 g ai/ha): 0
- Plant response rating (0 to 100 scale), Corn (corn (Zea mays); Postemergence, 1000 g ai/ha): 0
- Plant response rating (0 to 100 scale), Corn (corn (Zea mays); Preemergence, 1000 g ai/ha): 0
- Plant response rating (0 to 100 scale), Foxtail, Giant ([2]; Postemergence, 1000 g ai/ha): 0
- Plant response rating (0 to 100 scale), Foxtail, Giant ([2]; Preemergence, 1000 g ai/ha): 0
- Plant response rating (0 to 100 scale), Crabgrass, Large ([3]; Postemergence, 1000 g ai/ha): 0
- Plant response rating (0 to 100 scale), Crabgrass, Large ([3]; Preemergence, 1000 g ai/ha): 0
- Plant response rating (0 to 100 scale), Pigweed ([5]; Postemergence, 1000 g ai/ha): 90
- Plant response rating (0 to 100 scale), Pigweed ([5]; Preemergence, 1000 g ai/ha): 100
- Plant response rating (0 to 100 scale), Velvetleaf ([6]; Postemergence, 1000 g ai/ha): 90
- Plant response rating (0 to 100 scale), Velvetleaf ([6]; Preemergence, 1000 g ai/ha): 90
- Plant response rating (0 to 100 scale), Wheat ([7]; Postemergence, 1000 g ai/ha): 0
- Plant response rating (0 to 100 scale), Wheat ([7]; Preemergence, 1000 g ai/ha): 0
- Plant response rating, Barnyardgrass [8]: 0
- Plant response rating, Ducksalad [9]: 0
- Plant response rating, Rice (rice (Oryza sativa)): 0
- Plant response rating, Sedge, Umbrella [10]: 0

Compound: Cn1cc(C(=O)c2ccccc2)c(-c2cc(F)cc(Cl)c2)n1 [Compound 47]
- Plant response rating (0 to 100 scale), Barnyardgrass ([1]; Postemergence, 1000 g ai/ha): 0
- Plant response rating (0 to 100 scale), Barnyardgrass ([1]; Preemergence, 1000 g ai/ha): 0
- Plant response rating (0 to 100 scale), Corn (corn (Zea mays); Postemergence, 1000 g ai/ha): 0
- Plant response rating (0 to 100 scale), Corn (corn (Zea mays); Preemergence, 1000 g ai/ha): 0
- Plant response rating (0 to 100 scale), Foxtail, Giant ([2]; Postemergence, 1000 g ai/ha): 0
- Plant response rating (0 to 100 scale), Foxtail, Giant ([2]; Preemergence, 1000 g ai/ha): 0
- Plant response rating (0 to 100 scale), Crabgrass, Large ([3]; Postemergence, 1000 g ai/ha): 0
- Plant response rating (0 to 100 scale), Crabgrass, Large ([3]; Preemergence, 1000 g ai/ha): 0
- Plant response rating (0 to 100 scale), Pigweed ([5]; Postemergence, 1000 g ai/ha): 90
- Plant response rating (0 to 100 scale), Pigweed ([5]; Preemergence, 1000 g ai/ha): 80
- Plant response rating (0 to 100 scale), Velvetleaf ([6]; Postemergence, 1000 g ai/ha): 90
- Plant response rating (0 to 100 scale), Velvetleaf ([6]; Preemergence, 1000 g ai/ha): 90
- Plant response rating (0 to 100 scale), Wheat ([7]; Postemergence, 1000 g ai/ha): 0
- Plant response rating (0 to 100 scale), Wheat ([7]; Preemergence, 1000 g ai/ha): 0
- Plant response rating, Barnyardgrass [8]: 0
- Plant response rating, Ducksalad [9]: 0
- Plant response rating, Rice (rice (Oryza sativa)): 0
- Plant response rating, Sedge, Umbrella [10]: 0

Source: patent publication US10167262B2, “Herbicidal substituted 3-arylpyrazoles” (FMC CORPORATION, priority 2014, dated 2019)
